Series [1] can be described thus: Human Hepatocyte Stability. The class given is in vitro ADME. The settings on record: human hepatocytes 0.5×10^6 cells/mL, 120 min; for half-life at 1 μM: read-out: T1/2 (hepatic); for microsomal CLint at 1 μM: read-out: in vitro CLint (hepatic). The protocol: The tested compound was incubated in duplicate with incubation media (Williams' Medium E with 1× GlutaMAX) containing human hepatocytes (0.5×10^6 cells/mL). These incubations were carried out at a final test concentration of 1 μM over a total incubation period of 120 minutes. Samples were taken at 0, 15, 30, 60, 90 and 120 min and the reaction was terminated by addition of acetonitrile containing internal standard (100 nM alprazolam, 200 nM labetalol, 200 nM caffeine and 200 nM diclofenac). Verapamil was used as the positive control in this study. The samples were analyzed by UPLC-MS/MS to determine the concentration of the tested compound and the percentage remaining, intrinsic clearance (in vitro CLint) and half-life (t½) values were calculated.
(§1) Chromatographic analyses were performed on a Shimadzu UPLC apparatus (Kyoto, Japan) consisting of a gradient pump (model LC-30AD), an automatic injector (model HTC PAL System) and an on-line degasser (model DGU-20A5R). Detection was a triple quadrupole tandem mass spectrometer equipped with a turbo ion spray interface (API 4000/Triple Quad 4500/Triple Quad 5500/Triple Quad 6500). Data acquisition and integration were carried out with LC-MS software (Analyst 1.6) linked directly to the LC-MS/MS system. Chromatographic separations were achieved on a XSelect Hss T3 2.5μ (2.1×30 mm) Column. The mobile phase was 0.1% formic acid in water (A) and 0.1% formic acid in acetonitrile (B). The flow rate was 1.0 mL/min and column was maintained at 40° C.
Half-life (T1/2) data is measured in minutes, and in Table B2, the data is grouped into categories of by the following rules: • T1/2 (hepatic): A=200+; B=100 to 200; C=50 to 100; and D<50.
In vitro clearance (CLint) data is measured in μL/min/mg prot, and in Table B3, the data is grouped into categories of by the following rules: • CLint (microsomal): A<5; B=5 to 10; C=10 to 20; and D=20+.

In the next series the target is T1, EP2 receptor (Homo sapiens, UniProt P43116).
T1 construct: expressed in transfected cells; host or cells: CHO-K1 cells (ATCC), transient transfection with FuGENE 6
The series is described as follows: EP2 Potency Assay (cAMP TR-FRET, CHO-K1 cells transfected with EP2 receptor, PGE2 at EC80). The settings on record: CHO-K1 cells expressing EP2, prostaglandin E2 at EC80, read-out: EP2 Potency (IC50 category). The series is classed as cell-based. Put shortly: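 CHO-K1 cells transiently transfected with EP2 and seeded 24 h after transfection. IC50 from curve fit of percent inhibition versus concentration.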
On the technique in general: TR-FRET usually uses a lanthanide donor and a delayed reading to cut background.

Series [2] in a line: Human Liver Microsome Stability. The class given is in vitro ADME. The following applies: human liver microsomes 0.5 mg/mL, 37° C., 60 min; for half-life at 2 μM: read-out: T1/2 (microsomal); for microsomal CLint at 2 μM: read-out: in vitro CLint (microsomal). On the procedure: The tested compound was incubated in duplicate with human liver microsomes (0.5 mg/mL) at 37° C. These incubations were carried out at a final test article concentration of 2 μM over a total incubation period of 60 minutes. Samples were taken at 0, 15, 30, 45 and 60 min and the reaction terminated by addition of 4 volumes of acetonitrile containing internal standard (100 nM alprazolam, 200 nM imipramine, 200 nM labetalol and 2 μM ketoprofen). Diclofenac was used as a positive control in this study. The samples were analyzed by UPLC-MS/MS to determine the concentration of the test compound and the percent remaining, intrinsic clearance (in vitro CLint) and half-life (T1/2) values were calculated.
as §1
Half-life (T1/2) data is measured in minutes, and in Table B2, the data is grouped into categories of by the following rules: • T1/2 (microsomal): A=100+; B=50 to 100; C=20 to 50; D<20.
In vitro clearance (CLint) data is measured in μL/min/mg prot, and in Table B2, the data is grouped into categories of by the following rules: • CLint (microsomal): A<20; B=20 to 50; C=50 to 100; and D=100+.

T1 sequence (P43116 whole entry): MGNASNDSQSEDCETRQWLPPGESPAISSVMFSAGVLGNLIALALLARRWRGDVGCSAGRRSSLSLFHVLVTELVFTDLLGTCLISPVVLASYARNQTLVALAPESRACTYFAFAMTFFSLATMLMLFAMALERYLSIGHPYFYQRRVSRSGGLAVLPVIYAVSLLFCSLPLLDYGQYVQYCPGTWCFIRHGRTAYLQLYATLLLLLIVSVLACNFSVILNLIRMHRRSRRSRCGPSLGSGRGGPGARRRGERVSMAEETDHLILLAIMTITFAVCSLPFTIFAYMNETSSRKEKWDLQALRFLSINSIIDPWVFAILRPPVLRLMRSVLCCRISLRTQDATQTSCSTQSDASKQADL

By IC50 is commonly meant the concentration that gives 50% inhibition. For `C[C@@H]1COc2c(Cl)cc(-n3ccc4cc(F)ccc43)cc2CN1Cc1cnc(=O)[nH]c1` [Compound 9], in series [1], the half-life at 1 μM was below 0.833 h and the microsomal CLint at 1 μM was above 20 µL/min/mg. The IC50 at EP2 receptor was 100 to 500 nM. In addition, in series [2], the half-life at 2 μM is 0.833 to 1.67 h and the microsomal CLint at 2 μM was in the range of 20 to 50 µL/min/mg.

Turning to `C[C@@H]1COc2c(Cl)cc(-n3ccc4cc(F)ccc43)cc2CN1Cc1cnc(N)nc1` [Compound 11, 5-{[9-chloro-7-(5-fluoroindol-1-yl)-3-methyl-3,5-dihydro-2H-1,4-benzoxazepin-4-yl]methyl}pyrimidin-2-amine], in series [1], the half-life at 1 μM is 0.833 to 1.67 h and the microsomal CLint at 1 μM was above 20 µL/min/mg. At EP2 receptor, the IC50 was below 100 nM. Besides, in series [2], the half-life at 2 μM was below 0.333 h and the microsomal CLint at 2 μM was above 100 µL/min/mg.

In the case of `COc1ncc(CN2CCOc3c(Cl)cc(-n4ccc5cc(F)ccc54)cc3C2)cn1` [Compound 13], the IC50 at EP2 receptor fell in the range of 100 to 500 nM. In series [2], the half-life at 2 μM is below 0.333 h and the microsomal CLint at 2 μM is 50 to 100 µL/min/mg.

For the molecule `COc1ncc(CN2CCOc3c(Cl)cc(-n4ccc5c(F)c(F)ccc54)cc3C2)cn1` [Compound 25], in series [1], the half-life at 1 μM lay in the range of 1.67 to 3.33 h and the microsomal CLint at 1 μM lay in the range of 10 to 20 µL/min/mg. Moreover, the IC50 on EP2 receptor is 100 to 500 nM.

As for `Cc1c(CN2CCOc3c(Cl)cc(-n4ccc5cc(F)ccc54)cc3C2)cnn1C` [Compound 106, 9-chloro-4-((1,5-dimethyl-1H-pyrazol-4-yl)methyl)-7-(5-fluoro-1H-indol-1-yl)-2,3,4,5-tetrahydrobenzo[f][1,4]oxazepane], the IC50 at EP2 receptor lay in the range of 500 to 1000 nM. Also, in series [2], the half-life at 2 μM is below 0.333 h and the microsomal CLint at 2 μM was above 100 µL/min/mg.

For the molecule `COCc1ncc(CN2CCOc3c(Cl)cc(-n4ccc5cc(F)ccc54)cc3C2)cn1` [Compound 142], in series [1], the half-life at 1 μM is above 3.33 h and the microsomal CLint at 1 μM was 5 to 10 µL/min/mg. The IC50 at EP2 receptor was in the range of 100 to 500 nM.

In the case of `O=C(O)c1ncc(CN2CCOc3c(Cl)cc(-n4ccc5cc(F)ccc54)cc3C2)cn1` [Compound 144, 5-{[9-chloro-7-(5-fluoroindol-1-yl)-3,5-dihydro-2H-1,4-benzoxazepin-4-yl]methyl}pyrimidine-2-carboxylic acid], in series [1], the half-life at 1 μM was above 3.33 h and the microsomal CLint at 1 μM was below 5 µL/min/mg. Further, the IC50 on EP2 receptor was below 100 nM.

For `Cc1[nH]c(=O)ncc1CN1CCOc2c(Cl)cc(-n3ccc4cc(F)ccc43)cc2C1` [Compound 156], in series [1], the half-life at 1 μM is 1.67 to 3.33 h and the microsomal CLint at 1 μM was in the range of 5 to 10 µL/min/mg. In addition, the IC50 at EP2 receptor is below 100 nM.

As for `O=c1cc(CN2CCOc3c(Cl)cc(-n4ccc5cc(F)ccc54)cc3C2)cn[nH]1` [Compound 169, 5-{[9-chloro-7-(5-fluoroindol-1-yl)-3,5-dihydro-2H-1,4-benzoxazepin-4-yl]methyl}-2H-pyridazin-3-one], in series [1], the half-life at 1 μM was 1.67 to 3.33 h and the microsomal CLint at 1 μM lay within 5 to 10 µL/min/mg. In addition, the IC50 on EP2 receptor is below 100 nM.

Take `Nc1cnc(CN2CCOc3c(Cl)cc(-n4ccc5cc(F)ccc54)cc3C2)cn1` [Compound 170]: the IC50 on EP2 receptor fell in the range of 500 to 1000 nM. Besides, in series [2], the half-life at 2 μM lay in the range of 0.333 to 0.833 h and the microsomal CLint at 2 μM was in the range of 20 to 50 µL/min/mg.

Take `O=C(O)c1cc(CN2CCOc3c(Cl)cc(-n4ccc5cc(F)ccc54)cc3C2)ccn1` [Compound 185, 4-{[9-chloro-7-(5-fluoroindol-1-yl)-3,5-dihydro-2H-1,4-benzoxazepin-4-yl]methyl}pyridine-2-carboxylic acid]: in series [1], the half-life at 1 μM is above 3.33 h and the microsomal CLint at 1 μM was below 5 µL/min/mg. Moreover, on EP2 receptor, the IC50 fell in the range of 100 to 500 nM.

As for `Fc1ccc2c(ccn2-c2cc(Cl)c3c(c2)CN(Cc2cc[nH]c(=S)c2)CCO3)c1` [Compound 189, 4-{[9-chloro-7-(5-fluoroindol-1-yl)-3,5-dihydro-2H-1,4-benzoxazepin-4-yl]methyl}-1H-pyridine-2-thione], in series [1], the half-life at 1 μM is 0.833 to 1.67 h and the microsomal CLint at 1 μM was above 20 µL/min/mg. Moreover, the IC50 on EP2 receptor is 100 to 500 nM.

Consider `O=c1[nH]ccc(CN2CCOc3c(Cl)cc(-n4ccc5cc(F)ccc54)cc3C2)c1F` [Compound 193], for which, in series [1], the half-life at 1 μM fell in the range of 0.833 to 1.67 h and the microsomal CLint at 1 μM was 10 to 20 µL/min/mg. The IC50 at EP2 receptor was below 100 nM.

As for `Cc1c(CN2CCOc3c(Cl)cc(-n4ccc5cc(F)ccc54)cc3C2)cc[nH]c1=O` [Compound 194, 4-{[9-chloro-7-(5-fluoroindol-1-yl)-3,5-dihydro-2H-1,4-benzoxazepin-4-yl]methyl}-3-methyl-1H-pyridin-2-one], in series [1], the half-life at 1 μM lay within 1.67 to 3.33 h and the microsomal CLint at 1 μM is 10 to 20 µL/min/mg. Besides, the IC50 at EP2 receptor is below 100 nM.

Regarding `O=C1CC(CN2CCOc3c(Cl)cc(-n4ccc5cc(F)ccc54)cc3C2)=NN1` [Compound 198, 5-{[9-chloro-7-(5-fluoroindol-1-yl)-3,5-dihydro-2H-1,4-benzoxazepin-4-yl]methyl}-2,4-dihydropyrazol-3-one], the IC50 on EP2 receptor lay within 1000 to 5000 nM. In series [2], the half-life at 2 μM was 0.333 to 0.833 h and the microsomal CLint at 2 μM is 50 to 100 µL/min/mg.

`O=C1CC(CN2CCOc3c(Cl)cc(-n4ccc5cc(F)ccc54)cc3C2)CCN1` (centres unmarked) [Compound 200, 4-{[9-chloro-7-(5-fluoroindol-1-yl)-3,5-dihydro-2H-1,4-benzoxazepin-4-yl]methyl}piperidin-2-one]: the IC50 on EP2 receptor lay within 1000 to 5000 nM. In series [2], the half-life at 2 μM lay in the range of 0.333 to 0.833 h and the microsomal CLint at 2 μM was in the range of 20 to 50 µL/min/mg.

Consider `O=C1NC=C(CN2CCOc3c(Cl)cc(-n4ccc5cc(F)ccc54)cc3C2)CN1` [Compound 202], for which the IC50 at EP2 receptor was 500 to 1000 nM. For the same molecule, in series [2], the half-life at 2 μM lay within 0.833 to 1.67 h and the microsomal CLint at 2 μM is 20 to 50 µL/min/mg.

Regarding `O=c1cc(CN2CCOc3c(Cl)cc(-n4ccc5cc(F)ccc54)cc3C2)cco1` [Compound 203, 4-{[9-chloro-7-(5-fluoroindol-1-yl)-3,5-dihydro-2H-1,4-benzoxazepin-4-yl]methyl}pyran-2-one], on EP2 receptor, the IC50 is 100 to 500 nM. Also, in series [2], the half-life at 2 μM was below 0.333 h and the microsomal CLint at 2 μM lay within 50 to 100 µL/min/mg.

Take `O=c1cc(CN2Cc3cc(-n4ccc5cc(F)ccc54)cc(Cl)c3OCC2C2CC2)cc[nH]1` (centres unmarked) [Compound 231]: the IC50 at EP2 receptor is above 5000 nM.

`CC1c2cc(-n3ccc4cc(F)ccc43)cc(Cl)c2OCCN1Cc1cc[nH]c(=O)c1` (centres unmarked) [Compound 235]: on EP2 receptor, the IC50 was in the range of 500 to 1000 nM.

`Cc1c(-n2ccc3cc(F)ccc32)cc(Cl)c2c1CN(Cc1cc[nH]c(=O)c1)CCO2` [Compound 238]: on EP2 receptor, the half-maximal inhibitory concentration (IC50) lay within 1000 to 5000 nM.

Turning to `COCC1COc2c(Cl)cc(-n3ccc4cc(F)ccc43)cc2CN1Cc1cc[nH]c(=O)c1` (centres unmarked) [Compound 239], on EP2 receptor, the IC50 was 1000 to 5000 nM.

Regarding `O=c1cc(CN2CCc3c(Cl)cc(-n4ccc5cc(F)ccc54)cc3C2)cc[nH]1` [Compound 240], the IC50 at EP2 receptor was above 5000 nM.

In the case of `O=c1cc(CN2CCOc3c(Cl)cc(-n4ccc5cc(F)ccc54)cc32)cc[nH]1` [Compound 241], the IC50 at EP2 receptor is above 5000 nM.

As to `O=c1cc(CN2CCOc3c(Cl)cc(-n4ccc5cc(F)ccc54)cc3C2)cc[nH]1` [Ref, 4-((9-chloro-7-(5-fluoro-1H-indol-1-yl)-2,3-dihydrobenzo[f][1,4]oxazepin-4(5H)-yl)methyl)pyridin-2(1H)-one, reference compound], in series [1], the half-life at 1 μM is 1.67 to 3.33 h and the microsomal CLint at 1 μM fell in the range of 5 to 10 µL/min/mg. Also, in series [2], the half-life at 2 μM was 0.333 to 0.833 h and the microsomal CLint at 2 μM was 20 to 50 µL/min/mg.

(Values after patent publication US12624024B2, “EP2 antagonist compounds” (Reservoir Neuroscience, Inc., priority 2021, dated 2026).)
